Experimental data from publication PMC8757871, “Bridging the Antimicrobial Activity of Two Lactoferricin Derivatives in E. coli and Lipid-Only Membranes” (Frontiers in Medical Technology, 2021).

Experiments:
[1] = solubility of the peptide in buffer (stock preparation); assay type: physicochemical; conditions: PBS / HBS stock solutions; acetic acid up to 0.3% and DMSO up to 3% vol/vol added
Description: Peptide stock solutions of LF11-215 and LF11-324 were prepared in PBS solution for bacteria and HBS solution for lipid vesicles. […] AMP concentrations of the stock solutions were determined by comparing against the absorption band of the aromatic amino acids with the spectrophotometer NanoDrop ND-1000 (Thermo Fisher Scientific, Waltham, MA). Peptide stock solutions were stored in silanized glass tubes until use.

[2] = ANTS/DPX dye leakage assay and equi-activity partitioning analysis; conditions: for K (mole fraction partitioning coefficient) / RB ([P]B/[L]) / [P]W (peptide concentration in the water phase): fit of Equation (4), [L] = (1−20) mM, [P] = (0.05−2) mM, HBS
Description: (§1) All hydrated samples were equilibrated for 1 h at 40°C followed by 5 freeze-and-thaw cycles using liquid N2 and intermittent vortex-mixing. Large unilamellar vesicles (LUVs) were obtained by 31 extrusions with a handheld mini extruder (Avanti Polar Lipids, Alabaster, AL) using a 100 nm pore diameter polycarbonate filter. Vesicle size and polydispersity were determined via DLS using a Zetasizer NANO ZSP (Malvern Panalytical, Malvern, UK). ANTS/DPX-containing vesicles were separated from free ANTS/DPX by exclusion chromatography using a column filled with SephadexTM G-75 (Amersham Biosciences, Little Chalfont, UK) fine gel swollen in iso-osmotic HBS. Phospholipid concentrations for all samples were determined by phosphate analysis.
(§2) Dye leakage experiments were performed combining previously reported protocols ([20], [27]). In brief, the dependencies of ANTS/DPX leakage on lipid and peptide concentration were determined by first incubating lipid vesicles ([L] = 1, 4, 10, and 20 mM) with peptides [[P] = (0.025−2) mM] at 37°C for 1 h using a gently rocking shaker (Eppendorf Thermomixer C, Hamburg, Germany). Similar time protocols were applied previously ([27]) and are justified here based on separate time-resolved leakage experiments (Supplementary Figure 3) and Trp-fluorescence measurements (Figure 3), showing that a quasi steady state has been reached after 1 h. Before measurements, lipid/peptide solutions were diluted with HBS to a lipid concentration of 50 μM, and every measurement was repeated at least twice. Vesicle size was checked after each incubation period using DLS. Samples were excited at λ= 360 nm, and the intensity of the fluorescence emission peak at λ= 530 nm, Ip, was recorded with a slit width of 10 nm for both excitation and emission monochromators. Measurements were performed in quartz cuvettes in 2 ml of the iso-osmotic buffer on a Cary Eclipse Fluorescence Spectrophotometer (Varian/Agilent Technologies, Palo Alto, CA). The percentage of leakage, E%, was calculated according to the relation
(§3) (1) E%=Ip-Imin/Imax-Imin,
(§4) where Imin is the initial fluorescence without peptide, and Imax is the fluorescence corresponding to 100% leakage determined through the addition of a 1 vol% solution of Triton X-100. The initial, monotonic increase of E% values with increasing [P] was interpolated with a sigmoidal function. This enabled us to obtain peptide and lipid concentrations leading to a specific E% value, which can in turn be used to calculate the partitioning parameters (see section 2.3.1).
(§5) (4) [P]=RB[W]/K︸[P]W+RB[L]︸[P]B=RB([W]/K+[L]),

[3] = as above; conditions: for K (mole fraction partitioning coefficient) / RB ([P]B/[L]) / [P]W (peptide concentration in the water phase): fit of Equation (4), [L] = (1−20) mM, [P] = (0.05−2) mM, HBS; remark: listed apart in the source
Description: as §1
as §2, with “In brief, the dependencies of ANTS/DPX leakage on lipid and peptide concentration were determined by first incubating lipid vesicles ([L] = 1, 4, 10, and 20 mM) with peptides [[P] = (0.025−2) mM] at 37°C for 1 h using a gently rocking shaker (Eppendorf Thermomixer C, Hamburg, Germany).” left out
as §3, §4, §5

[4] = POPE/POPG LUVs, leakage 10%, 1 h at 37°C
[5] = POPE/POPG LUVs, leakage 15%, 1 h at 37°C
[6] = POPE/POPG/TOCL LUVs, leakage 10%, 1 h at 37°C
[7] = POPE/POPG/TOCL LUVs, leakage 20%, 1 h at 37°C
[8] = POPE/POPG/TOCL LUVs, leakage 40%, 1 h at 37°C
[9] = POPG LUVs, leakage 10%, 1 h at 37°C
[10] = POPG LUVs, leakage 20%, 1 h at 37°C
[11] = POPG LUVs, leakage 40%, 1 h at 37°C

Q: With “H-PFFWRIRIRR-NH2 [LF11-324, H-PFFWRIRIRR-NH2]” as the substance, how does the solubility in buffer [1] read?
A: weak solubility

Q: Which “maximum amount of partitioned AMPs” value ([2]; PE-containing systems, [L] ≃20 mM) does the source give for “H-FWRIRIRR-NH2 [LF11-215, H-FWRIRIRR-NH2]” here?
A: < 80%

Q: What about the “ANTS/DPX dye efflux, time-resolved” value ([2]; POPE/POPG LUVs [L] = 50 µM, [P] = 0.5 µM, converging after 25 min) of the same substance?
A: ~5%

Q: What about the “K (mole fraction partitioning coefficient)” value [2, 4] of the same substance?
A: 1.37 ± 0.16 ×10^4

Q: What about the “RB ([P]B/[L])” value [2, 4] of the same substance?
A: 9.8 ± 0.4 ×10^−3

Q: And the “[P]W (peptide concentration in the water phase)” value [2, 4]?
A: 0.040 ± 0.006 mM

Q: What about the “K (mole fraction partitioning coefficient)” value [2, 5] of the same substance?
A: 0.75 ± 0.15 ×10^4

Q: And the “RB ([P]B/[L])” value [2, 5]?
A: 10.7 ± 1.0 ×10^−3

Q: What about the “[P]W (peptide concentration in the water phase)” value [2, 5] of the same substance?
A: 0.08 ± 0.02 mM

Q: What about the “total ANTS/DPX efflux” value ([2]; POPE/POPG vesicles, 1 h at 37°C, all [P] and [L] tested) of the same substance?
A: ≤ 40%

Q: What about the “K (mole fraction partitioning coefficient)” value [2, 6] of the same substance?
A: 1.7 ± 0.8 ×10^4

Q: And the “RB ([P]B/[L])” value [2, 6]?
A: 5.6 ± 0.7 ×10^−3

Q: And the “[P]W (peptide concentration in the water phase)” value [2, 6]?
A: 0.018 ± 0.010 mM

Q: What about the “K (mole fraction partitioning coefficient)” value [2, 7] of the same substance?
A: 1.5 ± 0.3 ×10^4

Q: What about the “RB ([P]B/[L])” value [2, 7] of the same substance?
A: 7.2 ± 0.5 ×10^−3

Q: What about the “[P]W (peptide concentration in the water phase)” value [2, 7] of the same substance?
A: 0.026 ± 0.007 mM

Q: What about the “K (mole fraction partitioning coefficient)” value [2, 8] of the same substance?
A: 1.5 ± 0.4 ×10^4

Q: What about the “RB ([P]B/[L])” value [2, 8] of the same substance?
A: 9.6 ± 0.9 ×10^−3

Q: And the “[P]W (peptide concentration in the water phase)” value [2, 8]?
A: 0.036 ± 0.012 mM

Q: What about the “K (mole fraction partitioning coefficient)” value [3, 9] of the same substance?
A: 2.4 ± 0.7 ×10^4

Q: And the “RB ([P]B/[L])” value [3, 9]?
A: 36 ± 4 ×10^−3

Q: And the “[P]W (peptide concentration in the water phase)” value [3, 9]?
A: 0.08 ± 0.03 mM

Q: And the “K (mole fraction partitioning coefficient)” value [3, 10]?
A: 4.2 ± 0.4 ×10^4

Q: And the “RB ([P]B/[L])” value [3, 10]?
A: 55.9 ± 1.6 ×10^−3

Q: What about the “[P]W (peptide concentration in the water phase)” value [3, 10] of the same substance?
A: 0.073 ± 0.009 mM

Q: What about the “K (mole fraction partitioning coefficient)” value [3, 11] of the same substance?
A: 5.4 ± 1.4 ×10^4

Q: What about the “RB ([P]B/[L])” value [3, 11] of the same substance?
A: 72 ± 6 ×10^−3

Q: What about the “[P]W (peptide concentration in the water phase)” value [3, 11] of the same substance?
A: 0.08 ± 0.03 mM

Q: What about the “ANTS/DPX leakage, maximum reached (sigmoidal increase up to)” value ([3]; POPG LUVs, 1 h at 37°C, increasing [P]) of the same substance?
A: ≤ 100%

Q: And the “fraction of peptides partitioned into the lipid phase” value ([3]; POPG, at [L] ≃20 mM)?
A: > 90%
